For this data set, the system named is OPM2-Luc orthotopic tumors. The data set is described as follows: OPM2-Luc multiple myeloma orthotopic model, AMG 176 plus carfilzomib. In kind it is in vivo. Conditions: carfilzomib 3 mg/kg IV twice weekly. How it is done:
On day 0, female NSG mice were injected IV with 1×10^6 OPM2-Luc human OPM2-Luc multiple myeloma tumor cells transfected with the firefly luciferase gene.

On to `CC(C)C[C@H](NC(=O)[C@H](CCc1ccccc1)NC(=O)CN1CCOCC1)C(=O)N[C@@H](Cc1ccccc1)C(=O)N[C@@H](CC(C)C)C(=O)[C@@]1(C)CO1` [carfilzomib], for which the “TGI (tumor burden)” value (AMG 176 20 mg/kg orally once daily, day 4 until day 20, female NSG mice) amounted to 82%. In addition, the tolerability entry (NSG mice) is on record as “Unscheduled deaths”.

The values above are taken from patent US12622918B2, “Formulations and dosages for administering a compound that inhibits MCL1 protein” (Amgen Inc., priority 2019, dated 2026).
